Reference: BigSolDB 2.1

O=C(NC[C@H]1CN(c2ccc(N3CCOCC3=O)cc2)C(=O)O1)c1ccc(Cl)s1
solubility (mole fraction)
Settings | in 1,4-dioxane | in 2-butanone | in 2-hexanone | in 3-pentanone | in acetone | in acetonitrile | in methyl acetate
273.15 K | – | 3.47e-05 | 1.78e-05 | 2.43e-05 | 4.06e-05 | 4.82e-05 | 3.2e-05
278.15 K | – | 4.55e-05 | 2.24e-05 | 3.11e-05 | 5.29e-05 | 6.11e-05 | 4.05e-05
283.15 K | – | 5.9e-05 | 2.79e-05 | 3.94e-05 | 6.83e-05 | 7.68e-05 | 5.07e-05
288.15 K | 0.000132 | 7.59e-05 | 3.45e-05 | 4.95e-05 | 8.74e-05 | 9.58e-05 | 6.31e-05
293.15 K | 0.000158 | 9.67e-05 | 4.24e-05 | 6.17e-05 | 0.000111 | 0.000119 | 7.79e-05
298.15 K | 0.000189 | 0.000122 | 5.17e-05 | 7.64e-05 | 0.00014 | 0.000146 | 9.54e-05
303.15 K | 0.000224 | 0.000153 | 6.27e-05 | 9.39e-05 | 0.000175 | 0.000178 | 0.000116
308.15 K | 0.000265 | 0.000191 | 7.54e-05 | 0.000115 | 0.000216 | 0.000216 | 0.000141
313.15 K | 0.000311 | 0.000236 | 9.03e-05 | 0.000139 | 0.000267 | 0.00026 | 0.000169
318.15 K | 0.000363 | 0.00029 | 0.000107 | 0.000168 | 0.000326 | 0.000312 | 0.000202
323.15 K | 0.000422 | – | – | – | – | – | –
328.15 K | 0.000488 | – | – | – | – | – | –
333.15 K | 0.000562 | – | – | – | – | – | –
